# Experimental data reported in patent publication US8796289B2 (AbbVie Inc., priority 2011, dated 2014).
# pKi: −log10 of the molar value.
# Biological target: GST-tagged-Wee1 kinase (Homo sapiens, UniProt P30291)
# Assay: Wee1 time-resolved fluorescence equilibrium binding assay (displacement of Oregon Green-labeled ATP-competitive kinase probe)
# Description: Wee1 kinase was assayed using a time-resolved fluorescence equilibrium binding assay monitoring displacement of a rapidly reversible Oregon Green-labeled ATP-competitive kinase probe (N-(2-(2-(2-(4-(4-(5-chloro-4-(2-(1-hydroxycyclobutyl)thiazol-5-yl)-1H-pyrrolo[2,3-b]pyridin-2-yl)phenyl)piperazin-1-yl)ethoxy)ethoxy)ethyl)-2′,7′-difluoro-3′,6′-dihydroxy-3-oxo-3H-spiro[isobenzofuran-1,9′-xanthene]-5-carboxamide) by competitive Wee1 inhibitors.
# GST-tagged-Wee1 kinase, sequence (P30291 whole entry): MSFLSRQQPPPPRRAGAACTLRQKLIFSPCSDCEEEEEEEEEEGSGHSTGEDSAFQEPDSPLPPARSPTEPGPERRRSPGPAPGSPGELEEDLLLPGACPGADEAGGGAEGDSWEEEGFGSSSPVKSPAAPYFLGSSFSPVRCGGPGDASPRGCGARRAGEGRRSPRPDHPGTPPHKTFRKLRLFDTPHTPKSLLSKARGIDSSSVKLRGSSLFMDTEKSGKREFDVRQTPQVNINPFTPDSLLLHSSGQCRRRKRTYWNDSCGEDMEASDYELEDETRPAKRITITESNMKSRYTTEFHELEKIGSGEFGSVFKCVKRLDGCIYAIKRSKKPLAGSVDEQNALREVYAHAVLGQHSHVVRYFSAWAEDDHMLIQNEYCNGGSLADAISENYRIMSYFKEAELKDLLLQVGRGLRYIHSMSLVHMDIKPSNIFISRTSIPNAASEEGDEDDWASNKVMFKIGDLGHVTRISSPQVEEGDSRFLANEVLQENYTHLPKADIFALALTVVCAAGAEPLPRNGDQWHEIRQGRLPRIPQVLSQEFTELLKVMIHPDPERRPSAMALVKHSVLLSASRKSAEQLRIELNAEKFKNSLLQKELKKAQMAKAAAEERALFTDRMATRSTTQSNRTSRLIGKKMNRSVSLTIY
row,SMILES,pKi
1,"CC1CCCC(C)C1n1nc(-c2ccccn2)c2nc(Nc3ccc4c(c3)CN(C)CC4(C)C)ncc2c1=O (stereo not shown) [Example 330, 6-(2,6-dimethylcyclohexyl)-8-(pyridin-2-yl)-2-[(2,4,4-trimethyl-1,2,3,4-tetrahydroisoquinolin-7-yl)amino]pyrimido[4,5-d]pyridazin-5(6H)-one]",6.59
2,"CC1CCCC(C)C1n1nc(-c2ccccn2)c2nc(Nc3ccc4c(c3)CNCC4(C)C)ncc2c1=O (stereo not shown) [Example 331, 6-(2,6-dimethylcyclohexyl)-2-[(4,4-dimethyl-1,2,3,4-tetrahydroisoquinolin-7-yl)amino]-8-(pyridin-2-yl)pyrimido[4,5-d]pyridazin-5(6H)-one]",6.74
3,"CN1CCCC(n2nc(-c3ccccn3)c3nc(Nc4ccc5c(c4)CNCC5(C)C)ncc3c2=O)C1 (stereo not shown) [Example 332, 2-[(4,4-dimethyl-1,2,3,4-tetrahydroisoquinolin-7-yl)amino]-6-(1-methylpiperidin-3-yl)-8-(pyridin-2-yl)pyrimido[4,5-d]pyridazin-5(6H)-one]",6.31
4,"CC1CCCC(C)C1n1nc(-c2ccccn2)c2nc(Nc3ccc(N4CCNCC4)cc3)ncc2c1=O (stereo not shown) [Example 333, 6-(2,6-dimethylcyclohexyl)-2-{[4-(piperazin-1-yl)phenyl]amino}-8-(pyridin-2-yl)pyrimido[4,5-d]pyridazin-5(6H)-one]",6.11
5,"CN1CCCC(n2nc(-c3ccccn3)c3nc(Nc4ccc(N5CCNCC5)cc4)ncc3c2=O)C1 (stereo not shown) [Example 334, 6-(1-methylpiperidin-3-yl)-2-{[4-(piperazin-1-yl)phenyl]amino}-8-(pyridin-2-yl)pyrimido[4,5-d]pyridazin-5(6H)-one]",6.19
6,"CC(C)n1cc(-c2nn(-c3c(F)cccc3Cl)c(=O)c3cnc(Nc4ccc5c(c4)CNCC54CC4)nc23)cn1 [Example 335, 6-(2-chloro-6-fluorophenyl)-2-(2′,3′-dihydro-1′H-spiro[cyclopropane-1,4′-isoquinolin]-7′-ylamino)-8-[1-(propan-2-yl)-1H-pyrazol-4-yl]pyrimido[4,5-d]pyridazin-5(6H)-one]",9.68
7,"CN1CCN(c2ccc(Nc3ncc4c(=O)n(-c5ncccc5Cl)nc(-c5ccncc5)c4n3)cc2)CC1 [Example 336, 6-(3-chloropyridin-2-yl)-2-{[4-(4-methylpiperazin-1-yl)phenyl]amino}-8-(pyridin-4-yl)pyrimido[4,5-d]pyridazin-5(6H)-one]",9.31
8,"CC(C)n1cc(-c2nn(-c3c(Cl)cccc3Cl)c(=O)c3cnc(Nc4ccc5c(c4)CNCC54CC4)nc23)cn1 [Example 337, 6-(2,6-dichlorophenyl)-2-(2′,3′-dihydro-1′H-spiro[cyclopropane-1,4′-isoquinolin]-7′-ylamino)-8-[1-(propan-2-yl)-1H-pyrazol-4-yl]pyrimido[4,5-d]pyridazin-5(6H)-one]",9.66
9,"CN1CCN(c2ccc(Nc3ncc4c(=O)n(-c5c(Cl)cccc5Cl)nc(-c5cn(C)cn5)c4n3)cc2)CC1 [Example 338, 6-(2,6-dichlorophenyl)-8-(1-methyl-1H-imidazol-4-yl)-2-{[4-(4-methylpiperazin-1-yl)phenyl]amino}pyrimido[4,5-d]pyridazin-5(6H)-one]",9.14
10,"CN1Cc2cc(Nc3ncc4c(=O)n(-c5c(Cl)cccc5Cl)nc(-c5cn(C)cn5)c4n3)ccc2C2(CC2)C1 [Example 339, 6-(2,6-dichlorophenyl)-2-[(2′-methyl-2′,3′-dihydro-1′H-spiro[cyclopropane-1,4′-isoquinolin]-7′-yl)amino]-8-(1-methyl-1H-imidazol-4-yl)pyrimido[4,5-d]pyridazin-5(6H)-one]",9.15
11,"Cn1cnc(-c2nn(-c3c(Cl)cccc3Cl)c(=O)c3cnc(Nc4ccc(N5CCNCC5)cc4)nc23)c1 [Example 340, 6-(2,6-dichlorophenyl)-8-(1-methyl-1H-imidazol-4-yl)-2-{[4-(piperazin-1-yl)phenyl]amino}pyrimido[4,5-d]pyridazin-5(6H)-one]",9.49
12,"Cn1cnc(-c2nn(-c3c(Cl)cccc3Cl)c(=O)c3cnc(Nc4ccc5c(c4)CNCC54CC4)nc23)c1 [Example 341, 6-(2,6-dichlorophenyl)-2-(2′,3′-dihydro-1′H-spiro[cyclopropane-1,4′-isoquinolin]-7′-ylamino)-8-(1-methyl-1H-imidazol-4-yl)pyrimido[4,5-d]pyridazin-5(6H)-one]",9.00

# Continued, values first:
row,pKi,SMILES
1,9.00,"Cn1cnc(-c2nn(-c3c(Cl)cccc3Cl)c(=O)c3cnc(Nc4ccc5c(c4)CNCC5)nc23)c1 [Example 342, 6-(2,6-dichlorophenyl)-8-(1-methyl-1H-imidazol-4-yl)-2-(1,2,3,4-tetrahydroisoquinolin-7-ylamino)pyrimido[4,5-d]pyridazin-5(6H)-one]"
2,8.16,"CN1CCN(c2ccc(Nc3ncc4c(=O)n(-c5ncccc5Cl)nc(-c5cn(C)cn5)c4n3)cc2)CC1 [Example 343, 6-(3-chloropyridin-2-yl)-8-(1-methyl-1H-imidazol-4-yl)-2-{[4-(4-methylpiperazin-1-yl)phenyl]amino}pyrimido[4,5-d]pyridazin-5(6H)-one]"
3,9.60,"O=c1c2cnc(Nc3ccc(N4CCNCC4)cc3)nc2c(-c2nccs2)nn1-c1c(Cl)cccc1Cl [Example 344, 6-(2,6-dichlorophenyl)-2-{[4-(piperazin-1-yl)phenyl]amino}-8-(1,3-thiazol-2-yl)pyrimido[4,5-d]pyridazin-5(6H)-one]"
4,9.47,"O=c1c2cnc(Nc3ccc4c(c3)CNCC43CC3)nc2c(-c2nccs2)nn1-c1c(Cl)cccc1Cl [Example 345, 6-(2,6-dichlorophenyl)-2-(2′,3′-dihydro-1′H-spiro[cyclopropane-1,4′-isoquinolin]-7′-ylamino)-8-(1,3-thiazol-2-yl)pyrimido[4,5-d]pyridazin-5(6H)-one]"
5,9.68,"O=c1c2cnc(Nc3ccc4c(c3)CNCC4)nc2c(-c2nccs2)nn1-c1c(Cl)cccc1Cl [Example 346, 6-(2,6-dichlorophenyl)-2-(1,2,3,4-tetrahydroisoquinolin-7-ylamino)-8-(1,3-thiazol-2-yl)pyrimido[4,5-d]pyridazin-5(6H)-one]"
6,8.19,"O=c1c2cnc(Nc3ccc(N4CCNCC4)cc3)nc2c(-c2nccs2)nn1-c1ncccc1Cl [Example 347, 6-(3-chloropyridin-2-yl)-2-{[4-(piperazin-1-yl)phenyl]amino}-8-(1,3-thiazol-2-yl)pyrimido[4,5-d]pyridazin-5(6H)-one]"
7,8.74,"CN1CCN(c2ccc(Nc3ncc4c(=O)n(-c5ncccc5Cl)nc(-c5ccccn5)c4n3)cc2)CC1 [Example 348, 6-(3-chloropyridin-2-yl)-2-{[4-(4-methylpiperazin-1-yl)phenyl]amino}-8-(pyridin-2-yl)pyrimido[4,5-d]pyridazin-5(6H)-one]"
8,9.30,"Cc1nn(-c2ncccc2Cl)c(=O)c2cnc(Nc3ccc4c(c3)CNCC43CC3)nc12 [Example 349, 6-(3-chloropyridin-2-yl)-2-(2′,3′-dihydro-1′H-spiro[cyclopropane-1,4′-isoquinolin]-7′-ylamino)-8-methylpyrimido[4,5-d]pyridazin-5(6H)-one]"
9,8.74,"Cn1cnc(-c2nn(-c3ncccc3Cl)c(=O)c3cnc(Nc4ccc(N5CCNCC5)cc4)nc23)c1 [Example 350, 6-(3-chloropyridin-2-yl)-8-(1-methyl-1H-imidazol-4-yl)-2-{[4-(piperazin-1-yl)phenyl]amino}pyrimido[4,5-d]pyridazin-5(6H)-one]"
10,8.96,"Cc1nn(-c2ncccc2Cl)c(=O)c2cnc(Nc3ccc4c(c3)CN(C)CC43CC3)nc12 [Example 351, 6-(3-chloropyridin-2-yl)-8-methyl-2-[(2′-methyl-2′,3′-dihydro-1′H-spiro[cyclopropane-1,4′-isoquinolin]-7′-yl)amino]pyrimido[4,5-d]pyridazin-5(6H)-one]"
11,7.92,"Cn1cnc(-c2nn(-c3ncccc3Cl)c(=O)c3cnc(Nc4ccc5c(c4)CNCC54CC4)nc23)c1 [Example 352, 6-(3-chloropyridin-2-yl)-2-(2′,3′-dihydro-1′H-spiro[cyclopropane-1,4′-isoquinolin]-7′-ylamino)-8-(1-methyl-1H-imidazol-4-yl)pyrimido[4,5-d]pyridazin-5(6H)-one]"
12,7.80,"Cn1cnc(-c2nn(-c3ncccc3Cl)c(=O)c3cnc(Nc4ccc5c(c4)CNCC5)nc23)c1 [Example 353, 6-(3-chloropyridin-2-yl)-8-(1-methyl-1H-imidazol-4-yl)-2-(1,2,3,4-tetrahydroisoquinolin-7-ylamino)pyrimido[4,5-d]pyridazin-5(6H)-one]"
13,6.13,"CN1CCN(c2ccc(Nc3ncc4c(=O)n(-c5c(Cl)cccc5Cl)nc(-c5nccn5C)c4n3)cc2)CC1 [Example 354, 6-(2,6-dichlorophenyl)-8-(1-methyl-1H-imidazol-2-yl)-2-{[4-(4-methylpiperazin-1-yl)phenyl]amino}pyrimido[4,5-d]pyridazin-5(6H)-one]"
14,8.62,"Cn1ccnc1-c1nn(-c2c(Cl)cccc2Cl)c(=O)c2cnc(Nc3ccc(N4CCNCC4)cc3)nc12 [Example 355, 6-(2,6-dichlorophenyl)-8-(1-methyl-1H-imidazol-2-yl)-2-{[4-(piperazin-1-yl)phenyl]amino}pyrimido[4,5-d]pyridazin-5(6H)-one]"
15,9.00,"Cn1ccnc1-c1nn(-c2c(Cl)cccc2Cl)c(=O)c2cnc(Nc3ccc4c(c3)CNCC43CC3)nc12 [Example 356, 6-(2,6-dichlorophenyl)-2-(2′,3′-dihydro-1′H-spiro[cyclopropane-1,4′-isoquinolin]-7′-ylamino)-8-(1-methyl-1H-imidazol-2-yl)pyrimido[4,5-d]pyridazin-5(6H)-one]"
16,9.06,"CN1Cc2cc(Nc3ncc4c(=O)n(-c5c(Cl)cccc5Cl)nc(-c5nccn5C)c4n3)ccc2C2(CC2)C1 [Example 357, 6-(2,6-dichlorophenyl)-2-[(2′-methyl-2′,3′-dihydro-1′H-spiro[cyclopropane-1,4′-isoquinolin]-7′-yl)amino]-8-(1-methyl-1H-imidazol-2-yl)pyrimido[4,5-d]pyridazin-5(6H)-one]"
